Data from PubChem BioAssay (NCI).
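Method: 48-hour compound exposure of cells in 96-well plates, five concentrations, linear interpolation of endpoints. GI50: concentration for 50% inhibition of growth. At the TGI there is no net growth.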

Assays:
Assay in all cases: NCI-60 cell line screen, 48 h; in the data active means GI50 below about 0.43 µM; inactive means the rest
[1] = test system: 786-0 renal
[2] = test system: A498 renal
[3] = test system: A549 NSCLC
[4] = test system: ACHN renal
[5] = test system: BT-549 breast
[6] = test system: CAKI-1 renal
[7] = test system: CCRF-CEM leukemia
[8] = test system: COLO 205 colon
[9] = test system: DU-145 prostate
[10] = test system: EKVX NSCLC
[11] = test system: HCC-2998 colon
[12] = test system: HCT-116 colon
[13] = test system: HCT-15 colon
[14] = test system: HL-60(TB) leukemia
[15] = test system: HOP-62 NSCLC
[16] = test system: HOP-92 NSCLC
[17] = test system: HS 578T breast
[18] = test system: HT29 colon
[19] = test system: IGROV1 ovarian
[20] = test system: K-562 leukemia
[21] = test system: KM12 colon
[22] = test system: LOX IMVI melanoma
[23] = test system: M14 melanoma
[24] = test system: MALME-3M melanoma
[25] = test system: MCF7 breast
[26] = test system: MDA-MB-231 breast
[27] = test system: MDA-MB-435
[28] = test system: MDA-MB-468 breast
[29] = test system: MOLT-4 leukemia
[30] = test system: NCI-H226 lung
[31] = test system: NCI-H23 lung
[32] = test system: NCI-H460 lung
[33] = test system: NCI-H522 lung
[34] = test system: NCI/ADR-RES ovarian
[35] = test system: OVCAR-3 ovarian
[36] = test system: OVCAR-4 ovarian
[37] = test system: OVCAR-5 ovarian
[38] = test system: OVCAR-8 ovarian
[39] = test system: PC-3 prostate
[40] = test system: RPMI-8226 leukemia
[41] = test system: RXF 393 renal
[42] = test system: SF-268 CNS
[43] = test system: SF-295 CNS
[44] = test system: SF-539 CNS
[45] = test system: SK-MEL-2 melanoma
[46] = test system: SK-MEL-28 melanoma
[47] = test system: SK-MEL-5 melanoma
[48] = test system: SK-OV-3 ovarian
[49] = test system: SN12C renal
[50] = test system: SNB-19 CNS
[51] = test system: SNB-75 CNS
[52] = test system: SR leukemia
[53] = test system: SW-620 colon
[54] = test system: T-47D breast
[55] = test system: TK-10 renal
[56] = test system: U251 CNS
[57] = test system: UACC-257 melanoma
[58] = test system: UACC-62 melanoma
[59] = test system: UO-31 renal

N#Cc1ccc(C(=O)CSc2nc3c(c(Nc4ccc(S(N)(=O)=O)cc4)n2)CCC3)cc1
> 22.5 µM: TGI [1] | TGI [2] | TGI [3] | TGI [4] | TGI [5] | TGI [6] | TGI [7] | TGI [8] | TGI [9] | TGI [10] | TGI [11] | TGI [12] | TGI [13] | TGI [14] | TGI [15] | TGI [16] | TGI [17] | TGI [18] | TGI [19] | TGI [20] | TGI [21] | TGI [22] | TGI [23] | TGI [24] | TGI [25] | TGI [26] | TGI [27] | TGI [28] | TGI [29] | TGI [30] | TGI [31] | TGI [32] | TGI [33] | TGI [34] | TGI [35] | TGI [36] | TGI [37] | TGI [38] | TGI [39] | TGI [40] | TGI [41] | TGI [42] | TGI [43] | TGI [44] | TGI [45] | TGI [46] | TGI [47] | TGI [48] | TGI [49] | TGI [50] | TGI [51] | TGI [52] | TGI [53] | TGI [54] | TGI [55] | TGI [56] | TGI [57] | TGI [58] | TGI [59]
inactive: GI50 [1] > 22.5 µM | GI50 [2] > 22.5 µM | GI50 [3] > 22.5 µM | GI50 [4] > 22.5 µM | GI50 [5] > 22.5 µM | GI50 [6] > 22.5 µM | GI50 [7] > 22.5 µM | GI50 [8] > 22.5 µM | GI50 [9] > 22.5 µM | GI50 [10] > 22.5 µM | GI50 [11] > 22.5 µM | GI50 [12] > 22.5 µM | GI50 [13] > 22.5 µM | GI50 [14] > 22.5 µM | GI50 [15] > 22.5 µM | GI50 [16] > 22.5 µM | GI50 [17] > 22.5 µM | GI50 [18] > 22.5 µM | GI50 [19] > 22.5 µM | GI50 [20] > 22.5 µM | GI50 [21] > 22.5 µM | GI50 [22] > 22.5 µM | GI50 [23] > 22.5 µM | GI50 [24] > 22.5 µM | GI50 [25] > 22.5 µM | GI50 [26] > 22.5 µM | GI50 [27] > 22.5 µM | GI50 [28] > 22.5 µM | GI50 [29] > 22.5 µM | GI50 [30] > 22.5 µM | GI50 [31] > 22.5 µM | GI50 [32] > 22.5 µM | GI50 [33] > 22.5 µM | GI50 [34] > 22.5 µM | GI50 [35] > 22.5 µM | GI50 [36] > 22.5 µM | GI50 [37] > 22.5 µM | GI50 [38] > 22.5 µM | GI50 [39] > 22.5 µM | GI50 [40] > 22.5 µM | GI50 [41] > 22.5 µM | GI50 [42] > 22.5 µM | GI50 [43] > 22.5 µM | GI50 [44] > 22.5 µM | GI50 [45] > 22.5 µM | GI50 [46] > 22.5 µM | GI50 [47] > 22.5 µM | GI50 [48] > 22.5 µM | GI50 [49] > 22.5 µM | GI50 [50] > 22.5 µM | GI50 [51] > 22.5 µM | GI50 [52] > 22.5 µM | GI50 [53] > 22.5 µM | GI50 [54] > 22.5 µM | GI50 [55] > 22.5 µM | GI50 [56] > 22.5 µM | GI50 [57] > 22.5 µM | GI50 [58] > 22.5 µM | GI50 [59] > 22.5 µM
